PubChem BioAssay AID328 (DTP/NCI, 2004)
Where “and” joins values, the source holds several entries; their conditions need not be identical. Equal values may be shown once. Inconclusive results and toxic doses are left out.

System: BDF1 mice, P388 leukemia ip, median survival T/C
Experiment: NCI In Vivo Anticancer Drug Screen. Data for tumor model P388 Leukemia (intraperitoneal) in B6D2F1 (BDF1) mice
Details: endpoint: median survival time, higher = longer survival
Summary of the method: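 Antitumour effect was judged in vivo: survival in drug-treated mice, normalised to that of vehicle-dosed controls, gives the reported T/C.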

[1] = dose: 25.0 mg/kg/injection, schedule: Q01DX009 (ip), vehicle: Klucel (hydroxypropylcellulose) (HPC)
[2] = dose: 50.0 mg/kg/injection, schedule: Q01DX009 (ip), vehicle: Klucel (hydroxypropylcellulose) (HPC)
[3] = dose: 100.0 mg/kg/injection, schedule: Q01DX009 (ip), vehicle: Klucel (hydroxypropylcellulose) (HPC)
[4] = dose: 100.0 mg/kg/injection, schedule: Q01DX001 (ip), vehicle: saline with Tween-80
[5] = dose: 200.0 mg/kg/injection, schedule: Q01DX001 (ip), vehicle: saline with Tween-80
[6] = dose: 400.0 mg/kg/injection, schedule: Q01DX001 (ip), vehicle: saline with Tween-80
[7] = dose: 100.0 mg/kg/injection, schedule: Q01DX009 (ip), vehicle: saline with Tween-80
[8] = dose: 100.0 mg/kg/injection, schedule: Q04DX003 (ip), vehicle: saline with Tween-80
[9] = dose: 200.0 mg/kg/injection, schedule: Q01DX009 (ip), vehicle: saline with Tween-80
[10] = dose: 200.0 mg/kg/injection, schedule: Q04DX003 (ip), vehicle: saline with Tween-80
[11] = dose: 400.0 mg/kg/injection, schedule: Q04DX003 (ip), vehicle: saline with Tween-80
[12] = dose: 200.0 mg/kg/injection, schedule: Q01DX009 (ip), vehicle: Klucel (hydroxypropylcellulose) (HPC)
[13] = dose: 50.0 mg/kg/injection, schedule: Q01DX009 (ip), vehicle: saline with Tween-80
[14] = dose: 100.0 mg/kg/injection, schedule: Q04DX003 (ip), vehicle: Klucel (hydroxypropylcellulose) (HPC)
[15] = dose: 200.0 mg/kg/injection, schedule: Q04DX003 (ip), vehicle: Klucel (hydroxypropylcellulose) (HPC)
[16] = dose: 400.0 mg/kg/injection, schedule: Q04DX003 (ip), vehicle: Klucel (hydroxypropylcellulose) (HPC)

CS(=O)(=O)OCCCOS(C)(=O)=O
T/C (dose: 12.5 mg/kg/injection, schedule: Q01DX009 (ip), vehicle: Klucel (hydroxypropylcellulose) (HPC)): 109 % of control
T/C [1]: 109 % of control
T/C [2]: 119 % of control
T/C [3]: 95 % of control
T/C (dose: 100.0 mg/kg/injection, schedule: Q04DX003 (ip), vehicle: saline): 109 % of control
T/C (dose: 200.0 mg/kg/injection, schedule: Q04DX003 (ip), vehicle: saline): 118 % of control

O=C(O)CCc1c[nH]c2ccc(N(CCCl)CCCl)cc12
T/C (dose: 0.04 mg/kg/injection, schedule: Q04DX003 (ip), vehicle: saline with Tween-80): 109 % of control
T/C (dose: 0.08 mg/kg/injection, schedule: Q04DX003 (ip), vehicle: saline with Tween-80): 109 % of control
T/C (dose: 0.5 mg/kg/injection, schedule: Q04DX003 (ip), vehicle: saline with Tween-80): 158 % of control
T/C (dose: 0.5 mg/kg/injection, schedule: Q04DX003 (ip), vehicle: saline): 231 % of control
T/C (dose: 0.75 mg/kg/injection, schedule: Q04DX003 (ip), vehicle: saline with Tween-80): 154 % of control
T/C (dose: 1.0 mg/kg/injection, schedule: Q04DX003 (ip), vehicle: saline): 90 % of control

COC(=O)C1C(c2ccccc2)=NC(c2ccccc2)C1C(=O)OC (stereo not drawn)
T/C [4]: 101 % of control
T/C [5]: 96 % of control
T/C [6]: 109 % of control

O=C1NC(=O)C(c2ccccc2)(c2ccc(Cl)cc2Cl)N1 (stereo not drawn)
T/C [7]: 95 % of control
T/C [8]: 100 % of control
T/C [9]: 91 % of control
T/C [10]: 90 % of control
T/C [11]: 100 % of control

COc1ccc(N=C(c2ccccc2)c2ccc([N+](=O)[O-])cc2)cc1
T/C (dose: 12.0 mg/kg/injection, schedule: Q01DX009 (ip), vehicle: Klucel (hydroxypropylcellulose) (HPC)): 100 % of control
T/C [1]: 109 % of control
T/C [2]: 100 % of control and 122 % of control
T/C [3]: 86 % of control
T/C [12]: 90 % of control

CCOC(=O)C1=C(C)NC(C)=C(C(=O)OCC)C1c1ccc([N+](=O)[O-])s1
T/C [13]: 106 % of control
T/C [7]: 99 % of control

C=CCOc1ccc([N+](=O)[O-])cc1[N+](=O)[O-]
T/C [4]: 100 % of control
T/C [5]: 105 % of control
T/C [6]: 100 % of control

O=C(c1ccccc1)c1c2ccccc2c(C(=O)c2ccccc2)c2ccccc12
T/C [3]: 105 % of control
T/C [14]: 91 % of control
T/C [12]: 100 % of control
T/C [15]: 100 % of control
T/C [16]: 95 % of control

CN(C)c1ncnc2nsnc12
T/C (dose: 75.0 mg/kg/injection, schedule: Q04DX003 (ip), vehicle: saline with Tween-80): 95 % of control

COc1ccc(/C=C/C(=O)c2ccccc2)cc1OC
T/C (dose: 37.5 mg/kg/injection, schedule: Q01DX009 (ip), vehicle: Klucel (hydroxypropylcellulose) (HPC)): 117 % of control
T/C (dose: 50.0 mg/kg/injection, schedule: Q01DX009 (ip), vehicle: water): 92 % of control
T/C (dose: 75.0 mg/kg/injection, schedule: Q01DX009 (ip), vehicle: Klucel (hydroxypropylcellulose) (HPC)): 111 % of control
T/C (dose: 100.0 mg/kg/injection, schedule: Q01DX006 (ip), vehicle: water): 115 % of control
T/C [3]: 105 % of control
T/C (dose: 100.0 mg/kg/injection, schedule: Q01DX009 (ip), vehicle: water): 115 % of control
T/C [14]: 113 % of control
T/C (dose: 100.0 mg/kg/injection, schedule: Q04DX003 (ip), vehicle: water): 86 % of control
T/C (dose: 150.0 mg/kg/injection, schedule: Q01DX009 (ip), vehicle: Klucel (hydroxypropylcellulose) (HPC)): 105 % of control
T/C (dose: 200.0 mg/kg/injection, schedule: Q01DX006 (ip), vehicle: water): 108 % of control
T/C [12]: 100 % of control
T/C [15]: 90 % of control
T/C (dose: 200.0 mg/kg/injection, schedule: Q04DX003 (ip), vehicle: water): 100 % of control
T/C (dose: 300.0 mg/kg/injection, schedule: Q01DX009 (ip), vehicle: Klucel (hydroxypropylcellulose) (HPC)): 107 % of control and 111 % of control
T/C (dose: 400.0 mg/kg/injection, schedule: Q01DX006 (ip), vehicle: water): 150 % of control
T/C (dose: 400.0 mg/kg/injection, schedule: Q01DX009 (ip), vehicle: Klucel (hydroxypropylcellulose) (HPC)): 109 % of control and 115 % of control
T/C (dose: 400.0 mg/kg/injection, schedule: Q01DX009 (ip), vehicle: water): 124 % of control
T/C [16]: 100 % of control
T/C (dose: 400.0 mg/kg/injection, schedule: Q04DX003 (ip), vehicle: water): 98 % of control
T/C (dose: 500.0 mg/kg/injection, schedule: Q01DX006 (ip), vehicle: water): 161 % of control
T/C (dose: 500.0 mg/kg/injection, schedule: Q01DX009 (ip), vehicle: Klucel (hydroxypropylcellulose) (HPC)): 100 % of control

O=[N+]([O-])c1ccc(C(Br)C(Br)c2ccccc2Cl)cc1 (stereo not drawn)
T/C [14]: 100 % of control
T/C [15]: 100 % of control
T/C [16]: 100 % of control

O=C(/C=C/c1ccc(OCc2ccccc2)cc1)c1ccccn1
T/C [13]: 97 % of control
T/C [7]: 98 % of control
T/C [9]: 96 % of control

O=C1Cc2ccc3c(c2O1)C(=O)c1ccccc1C3=O
T/C (dose: 100.0 mg/kg/injection, schedule: Q04DX002 (ip), vehicle: saline with Tween-80): 106 % of control
T/C (dose: 200.0 mg/kg/injection, schedule: Q04DX002 (ip), vehicle: saline with Tween-80): 100 % of control

Cc1ccc(C(=O)C2CC2)cc1C
T/C (dose: 33.0 mg/kg/injection, schedule: Q01DX009 (ip), vehicle: saline with Tween-80): 96 % of control
T/C [13]: 103 % of control
T/C (dose: 50.0 mg/kg/injection, schedule: Q04DX003 (ip), vehicle: saline with Tween-80): 104 % of control
T/C (dose: 75.0 mg/kg/injection, schedule: Q01DX009 (ip), vehicle: saline with Tween-80): 111 % of control
T/C [8]: 112 % of control
T/C [9]: 120 % of control
T/C [10]: 112 % of control

O=C[C@@H](CO)O[C@H](C=O)n1cnc2c(=O)[nH]cnc21
T/C (dose: 108.0 mg/kg/injection, schedule: Q04DX003 (ip), vehicle: water): 170 % of control
T/C (dose: 180.0 mg/kg/injection, schedule: Q04DX003 (ip), vehicle: water): 179 % of control and 184 % of control
T/C (dose: 300.0 mg/kg/injection, schedule: Q04DX003 (ip), vehicle: water): 227 % of control and 247 % of control

Cc1nc(N)ncc1CCC1OCCO1
T/C (dose: 100.0 mg/kg/injection, schedule: Q01DX001 (ip), vehicle: saline): 100 % of control
T/C (dose: 200.0 mg/kg/injection, schedule: Q01DX001 (ip), vehicle: saline): 109 % of control
T/C (dose: 400.0 mg/kg/injection, schedule: Q01DX001 (ip), vehicle: saline): 111 % of control

O=C(NC(=O)c1c(F)cccc1F)Nc1ccc(OCc2ccccc2)cc1
T/C [13]: 93 % of control
T/C [7]: 86 % of control

CC(C)C1(C(=O)O)SCCCS1
T/C (dose: 50.0 mg/kg/injection, schedule: Q04DX003 (ip), vehicle: alcohol): 115 % of control
T/C (dose: 100.0 mg/kg/injection, schedule: Q04DX003 (ip), vehicle: alcohol): 115 % of control
T/C (dose: 200.0 mg/kg/injection, schedule: Q04DX003 (ip), vehicle: alcohol): 105 % of control
T/C (dose: 400.0 mg/kg/injection, schedule: Q04DX003 (ip), vehicle: alcohol): 105 % of control

CS(=O)(=O)OCCn1c(=O)n(CCOS(C)(=O)=O)c(=O)n(CCOS(C)(=O)=O)c1=O
T/C (dose: 100.0 mg/kg/injection, schedule: Q01DX009 (ip), vehicle: saline sonified): 90 % of control
T/C [8]: 90 % of control
T/C (dose: 200.0 mg/kg/injection, schedule: Q01DX009 (ip), vehicle: saline sonified): 110 % of control
T/C [10]: 100 % of control
T/C (dose: 400.0 mg/kg/injection, schedule: Q01DX009 (ip), vehicle: saline sonified): 90 % of control
T/C [11]: 100 % of control

C=CCN1c2ccccc2Sc2cnccc21
T/C [13]: 109 % of control
T/C [7]: 100 % of control and 104 % of control
T/C [9]: 100 % of control
